The supplement of paper PMC10307832

Assays:
Experiment in all cases: relative viability (nuclei count vs DMSO), 5 days (fraction); higher = more cells survive
GW-2580 + Crizotinib = compound: COC1=CC=C(C=C1)COC2=C(C=C(C=C2)CC3=CN=C(N=C3N)N)OC [GW-2580] + C[C@@H](Oc1cc(-c2cnn(C3CCNCC3)c2)cnc1N)c1c(Cl)ccc(F)c1Cl [Crizotinib] (partner 1 µM)
In short: (§1)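 Lung cancer cell lines in 1536-well plates were dosed by pin tool the day after seeding, either with one drug alone or with a fixed anchor-drug dose plus five library-drug doses (not always all listed) in √10 steps. After 5 days, cells were fixed and their nuclei stained in one step (final 0.05% Triton X-100, 1% formaldehyde, 1 ug/ml Hoechst), then counted on 4× images. Relative viability is the nuclei count in treated wells divided by that in vehicle wells. Values are medians of duplicate plates.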

Fedratinib + Vorinostat = compound: Cc1cnc(Nc2ccc(OCCN3CCCC3)cc2)nc1Nc1cccc(S(=O)(=O)NC(C)(C)C)c1 [Fedratinib] + O=C(CCCCCCC(=O)Nc1ccccc1)NO [Vorinostat] (partner 1 µM)
In short: as §1

GW-2580 + Decitabine = compound: COC1=CC=C(C=C1)COC2=C(C=C(C=C2)CC3=CN=C(N=C3N)N)OC [GW-2580] + Nc1ncn([C@H]2C[C@H](O)[C@@H](CO)O2)c(=O)n1 [Decitabine] (partner 2 µM)
In short: as §1

Fedratinib + Dasatinib = compound: Cc1cnc(Nc2ccc(OCCN3CCCC3)cc2)nc1Nc1cccc(S(=O)(=O)NC(C)(C)C)c1 [Fedratinib] + Cc1nc(Nc2ncc(C(=O)Nc3c(C)cccc3Cl)s2)cc(N2CCN(CCO)CC2)n1 [Dasatinib] (partner 0.075 µM)
In short: as §1

GW-2580 + Trametinib = compound: COC1=CC=C(C=C1)COC2=C(C=C(C=C2)CC3=CN=C(N=C3N)N)OC [GW-2580] + CC(=O)Nc1cccc(-n2c(=O)n(C3CC3)c(=O)c3c(Nc4ccc(I)cc4F)n(C)c(=O)c(C)c32)c1 [Trametinib] (partner 0.02 µM)
In short: as §1

Cell Line | relative viability (GW-2580 + Crizotinib; first compound 0.08 µM) | relative viability (GW-2580 + Crizotinib; first compound 0.8 µM) | relative viability (GW-2580 + Crizotinib; first compound 2.53 µM) | relative viability (GW-2580 + Crizotinib; first compound 8 µM) | relative viability (Fedratinib + Vorinostat; first compound 0.1 µM) | relative viability (Fedratinib + Vorinostat; first compound 0.3162 µM) | relative viability (Fedratinib + Vorinostat; first compound 1 µM) | relative viability (GW-2580 + Decitabine; first compound 0.08 µM) | relative viability (GW-2580 + Decitabine; first compound 0.8 µM) | relative viability (GW-2580 + Decitabine; first compound 2.53 µM) | relative viability (GW-2580 + Decitabine; first compound 8 µM) | relative viability (Fedratinib + Dasatinib; first compound 0.1 µM) | relative viability (Fedratinib + Dasatinib; first compound 0.3162 µM) | relative viability (Fedratinib + Dasatinib; first compound 1 µM) | relative viability (GW-2580 + Trametinib; first compound 0.08 µM) | relative viability (GW-2580 + Trametinib; first compound 0.8 µM) | relative viability (GW-2580 + Trametinib; first compound 2.53 µM) | relative viability (GW-2580 + Trametinib; first compound 8 µM)
ABC-1 | 1.1 | 1.3 | 0.901 | 0.783 | 0.983 | 1.06 | 0.888 | 0.72 | 1.01 | 1.22 | 0.934 | 0.499 | 0.629 | 0.569 |  |  |  | 
NCI-H522 |  |  |  |  | 0.703 | 0.82 | 0.895 | 0.738 | 0.62 | 0.668 | 0.682 | 0.88 | 1.05 | 0.599 | 0.804 | 0.673 | 0.656 | 0.753
NCI-H838 | 0.946 | 0.904 | 0.779 | 0.8 | 0.713 | 0.693 | 0.575 | 0.438 | 0.466 | 0.435 | 0.426 | 0.281 | 0.29 | 0.239 | 0.576 | 0.514 | 0.411 | 0.632
SW 900 |  |  |  |  | 0.344 | 0.377 | 0.462 | 0.467 | 0.45 | 0.422 | 0.472 | 0.498 | 0.51 | 0.643 | 0.711 | 0.785 | 0.759 | 0.896
A549 | 0.722 | 0.878 | 0.737 | 0.543 |  |  |  |  | 0.264 | 0.21 | 0.288 |  |  |  |  |  |  | 
A-427 | 0.926 | 1.07 | 0.785 | 0.663 | 0.873 | 0.792 | 0.781 | 0.541 | 0.555 | 0.531 | 0.618 | 0.74 | 0.733 | 0.249 | 0.785 | 0.675 | 0.648 | 0.704
NCI-H1792 | 1.03 | 1.13 | 0.733 | 1.13 |  |  |  | 0.574 | 0.546 | 0.387 | 0.502 | 0.619 | 0.765 | 0.81 | 0.49 | 0.502 | 0.388 | 0.337
LCLC-97TM1 | 0.554 |  | 0.303 | 0.284 | 0.74 | 0.669 | 0.456 | 0.241 | 0.224 | 0.213 | 0.209 | 0.822 | 0.831 | 0.723 | 0.189 | 0.196 | 0.192 | 0.196
NCI-H1703 | 0.752 | 0.631 | 0.714 | 0.647 |  |  |  |  |  |  |  |  |  |  |  |  |  | 
LCLC-103H | 1.02 | 1.1 | 1.08 | 1.02 | 0.768 | 0.752 | 0.718 | 0.752 | 0.724 | 0.661 | 0.706 | 0.492 | 0.294 | 0.511 | 0.725 | 0.716 | 0.64 | 0.637
PC-3 [JPC-3] | 0.985 | 1.08 | 0.98 | 0.945 | 0.719 | 0.978 | 0.676 | 0.8 | 0.855 | 0.829 | 0.783 | 1.11 | 0.905 | 0.966 | 0.7 | 0.674 | 0.685 | 0.745
BEN | 0.937 | 1 | 0.785 | 0.958 | 0.544 | 0.577 | 0.55 | 0.703 | 0.79 | 0.619 | 0.677 | 0.36 | 0.312 | 0.294 | 1.05 | 1.1 | 0.898 | 0.979
NCI-H1666 | 1.01 | 0.984 | 1.17 | 0.926 | 1.07 | 1.1 | 0.928 | 0.604 | 0.888 | 0.738 | 0.698 | 0.843 | 0.675 | 0.731 | 0.846 | 0.767 | 0.796 | 0.872
LC-2-ad | 0.484 | 0.527 | 0.462 | 0.459 | 0.582 | 0.804 | 0.705 | 0.82 | 0.913 | 0.833 | 0.815 | 0.702 | 0.636 | 0.266 | 0.883 | 0.995 | 0.923 | 0.816
SK-LU-1 | 1 | 1.08 | 0.798 | 1.06 | 0.766 | 0.786 | 0.614 | 0.631 | 0.673 | 0.55 | 0.668 | 0.143 | 0.169 | 0.165 | 0.498 | 0.437 | 0.375 | 0.518
Calu-6 | 0.85 | 0.857 | 0.769 | 0.674 |  |  |  |  |  |  |  |  |  |  |  |  |  | 
NCI-H1648 |  |  |  |  | 0.291 | 0.36 | 0.616 | 0.531 |  | 0.464 | 0.552 |  |  |  | 0.416 |  | 0.405 | 0.439
EBC-1 | 0.205 | 0.163 | 0.19 | 0.164 |  |  |  |  |  |  |  |  |  |  |  |  |  | 
NCI-H1299 | 0.974 | 0.984 | 0.972 | 0.892 |  |  |  |  |  |  |  |  |  |  |  |  |  | 
NCI-H2228 | 0.404 | 0.528 | 0.408 | 0.5 | 0.744 | 0.589 | 0.545 |  |  |  |  | 0.552 | 0.448 | 0.349 | 0.483 | 0.51 | 0.364 | 0.511
NCI-H2342 |  |  |  |  | 0.94 | 0.71 | 0.926 | 0.673 | 0.654 | 0.692 | 0.735 | 0.314 | 0.309 | 0.273 | 0.805 | 0.889 | 0.783 | 0.83
IA-LM | 0.962 | 0.732 | 1.02 | 0.836 | 0.901 | 0.95 | 0.979 |  |  |  |  |  |  |  |  |  |  | 
NCI-H1793 |  |  |  |  | 0.749 | 0.621 | 0.515 | 0.493 | 0.614 | 0.473 | 0.503 | 0.4 | 0.348 | 0.362 | 0.467 | 0.425 | 0.344 | 0.464
CAL-12T | 0.632 |  | 0.59 | 0.577 | 0.747 | 0.84 | 0.681 |  |  |  |  | 0.47 | 0.277 | 0.285 | 0.33 | 0.284 | 0.356 | 0.436
